Legend:
CD8+ T cells = assay: pSTAT5 signaling in human LRS-derived PBMC samples, CD8+ T cells (flow cytometry); assay type: cell-based; settings: Table 13 (Example 11)
Method: (§1) These studies were performed at PrimityBio LLC (Fremont, CA). […] Staining panel for flow cytometry study of LRS-derived PBMC samples include markers for Effector T cells (Teff: CD3+, CD4+, CD8+, CD127+), NK cells (CD3-, CD16+), and Regulatory T cells (Treg: CD3+, CD4+, CD8-, IL-2Rα+, CD127-1).
(§2) These studies were performed at PrimityBio LLC (Fremont, CA). […] Staining panel for flow cytometry study of LRS-derived PBMC samples include markers CD4, CD4+ memory central, CD4+ memory effect, CD4+ memory T cells, CD4+ Naive T cells, CD4+ T cells, CD8, CD8+ memory central, CD8+ memory effect, CD8+ memory T cells, CD8+ Naive T cells, CD8+ T cells, NK cells, and T regulatory cells.
(§3) Conjugates of Table 13 were synthesized by modification of SEQ NO. 1. These studies were performed at PrimityBio LLC (Fremont, CA).

NK cells = assay: pSTAT5 signaling in human LRS-derived PBMC samples, NK cells (flow cytometry); assay type: cell-based; settings: Table 13 (Example 11)
Method: as §1, §3

CTLL-2 = CTLL-2 proliferation; assay type: cell-based, mouse; settings: Table 13 (Example 11)
Treg cells = assay: pSTAT5 signaling in human LRS-derived PBMC samples, Treg cells (flow cytometry); assay type: cell-based; settings: for EC50 for pSTAT5 signaling, Treg cells: Table 13 (Example 11); for Fold increase in Treg EC50 vs native IL-2: compared to native IL-2 run in each individual experiment
Method: as §1, §2, §3

[1] = human transferrin; cited from earlier work

EC50 for pSTAT5 signaling, CD8+ Tcells (CD8+ T cells) [pg/ml] | EC50 for pSTAT5 signaling, NK cells (NK cells) [pg/ml] | EC50 for pSTAT5 signaling, Treg cells (Treg cells) [pg/ml] | Fold increase in Treg EC50 vs native IL-2 (Treg cells) | Substance | CD8+/Treg ratio (CD8+ T cells) | EC50 CTLL-2 proliferation (CTLL-2) [ng/mL] | half-life [1] [h]
12503386 | 2780819 | 175805 | 3663 | N88R/D109_30kD: IL-2 variant with N88R substitution and 30 kD PEG at D109 | 71 | 59.577 | –
15025734 | 2312847 | 11082 | 148 | N88R: IL-2 variant with N88R substitution [reference compound] | 1356 | 0.363 | –
102255 | 20537 | 142 | 3 | V91K: IL-2 variant with V91K substitution [reference compound] | 720 | 0.0995 | –
– | – | – | – | human transferrin: 679 amino acid polypeptide that is about 80 kDa in size and comprises two Fe^3+ binding sites | – | – | 170 to 288
